By IC50 is commonly meant the concentration that gives 50% inhibition.

The assay deals with T1, Human KLK1 (Homo sapiens, UniProt P06870).
T1 construct: purchased Callbiochem (Calbiochem)
The assay can be described thus: Determination of the IC50 for KLK1 (fluorogenic substrate H-DVal-Leu-Arg-AFC). Format: biochemical. The settings on record: 37° C. Summed up:
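hKLK1 + H-DVal-Leu-Arg-AFC, 37° C, varied cpd conc. Initial rate by A410 change → residual activity → IC50.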

T1 sequence (P06870 25-262): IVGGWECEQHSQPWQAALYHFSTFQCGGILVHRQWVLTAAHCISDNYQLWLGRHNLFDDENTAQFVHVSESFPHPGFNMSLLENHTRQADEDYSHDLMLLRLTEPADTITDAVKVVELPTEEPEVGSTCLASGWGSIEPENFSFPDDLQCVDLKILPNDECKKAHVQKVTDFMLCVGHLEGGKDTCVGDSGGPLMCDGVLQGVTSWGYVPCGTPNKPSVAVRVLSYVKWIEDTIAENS

For `CC(C)N(C)[C@@H](C)C(=O)N[C@@H](Cc1ccc(F)cc1)C(=O)NCc1ccc(N)nc1` [Example 181, (S)—N-[(S)-1-[(6-Amino-pyridin-3-ylmethyl)-carbamoyl]-2-(4-fluoro-phenyl)-ethyl]-2-(isopropyl-methyl-amino)-propionamide], the midpoint of inhibition, the IC50, lay at 1.1 nM.
Next, `CCN(C)[C@@H](Cc1ccccc1)C(=O)N[C@@H](Cc1ccc(F)c(F)c1)C(=O)NCc1ccc(N)nc1` [Example 352, (S)—N-[(S)-1-[(6-Amino-pyridin-3-ylmethyl)-carbamoyl]-2-(3,4-difluoro-phenyl)-ethyl]-2-(ethyl-methyl-amino)-3-phenyl-propionamide]: 13.7 nM.
Take `Nc1ccc(CNC(=O)[C@H](Cc2cccc(Cl)c2)NC(=O)CN2CCCCC2)cn1` [Example 412, (S)—N-(6-Amino-pyridin-3-ylmethyl)-3-(3-chloro-phenyl)-2-(2-piperidin-1-yl-acetylamino)-propionamide]: 9.3 nM corresponded to half-maximal inhibition (IC50).
In turn, `Cc1cc(C(=O)O)[nH]c1C(=O)N[C@@H](Cc1cccc(C(F)(F)F)c1)C(=O)NCc1ccc(N)nc1` [Example 276, 5-[(S)-1-[(6-Amino-pyridin-3-ylmethyl)-carbamoyl]-2-(3-trifluoromethyl-phenyl)-ethylcarbamoyl]-4-methyl-1H-pyrrole-2-carboxylic acid] came in with an IC50 of 30.5 nM.
Next, `CCC(C)[C@@H](NC)C(=O)N[C@@H](Cc1ccc(F)c(F)c1)C(=O)NCc1ccc(N)nc1` (stereo partly drawn) [Example 43, (R)-3-Methyl-2-methylamino-pentanoic acid [(S)-1-[(6-amino-pyridin-3-ylmethyl)-carbamoyl]-2-(3,4-difluoro-phenyl)-ethyl]-amide]: 2.9 nM; `COc1ccc2[nH]c(C(=O)N[C@@H](Cc3cccc4ccccc34)C(=O)NCc3ccc(N)nc3C)cc2c1` [Example 304, 5-Methoxy-1H-indole-2-carboxylic acid {(S)-1-[(6-amino-2-methyl-pyridin-3-ylmethyl)-carbamoyl]-2-naphthalen-1-yl-ethyl}-amide]: 148 nM.
Under `CCC(C)[C@H](C(=O)N[C@@H](Cc1ccc(Cl)c(Cl)c1)C(=O)NCc1ccc(N)nc1)N(C)C(C)C` (stereo partly drawn) [Example 155, (R)-2-(Isopropyl-methyl-amino)-3-methyl-pentanoic acid [(S)-1-[(6-amino-pyridin-3-ylmethyl)-carbamoyl]-2-(3,4-dichloro-phenyl)-ethyl]-amide] stands 63.3 nM; under `Cc1ccc(-c2ccc(C(=O)N[C@@H](Cc3cccc(Cl)c3)C(=O)NCc3ccc(N)nc3)[nH]2)cc1` [Example 297, 5-p-Tolyl-1H-pyrrole-2-carboxylic acid [(S)-1-[(6-amino-pyridin-3-ylmethyl)-carbamoyl]-2-(3-chloro-phenyl)-ethyl]-amide], 40.1 nM.
With `Cn1ccnc1C(=O)N[C@@H](Cc1ccc(F)cc1)C(=O)NCc1ccc(N)nc1` [Example 290, 1-Methyl-1H-imidazole-2-carboxylic acid [(S)-1-[(6-amino-pyridin-3-ylmethyl)-carbamoyl]-2-(4-fluoro-phenyl)-ethyl]-amide], 626 nM corresponded to half-maximal inhibition (IC50).
Next, `Cc1ccc(-c2ccc(C(=O)N[C@@H](Cc3ccc(Cl)c(Cl)c3)C(=O)NCc3ccc(N)nc3)[nH]2)cc1` [Example 296, 5-p-Tolyl-1H-pyrrole-2-carboxylic acid [(S)-1-[(6-amino-pyridin-3-ylmethyl)-carbamoyl]-2-(3,4-dichloro-phenyl)-ethyl]-amide]: 40.9 nM.
Under `CCC(C)[C@H](C(=O)N[C@@H](Cc1ccc(F)cc1)C(=O)NCc1ccc(N)nc1)N(C)C` (stereo partly drawn) [Example 182, (R)-2-Dimethylamino-3-methyl-pentanoic acid [(S)-1-[(6-amino-pyridin-3-ylmethyl)-carbamoyl]-2-(4-fluoro-phenyl)-ethyl]-amide] stands 21.2 nM.
As for `Nc1ccc(CNC(=O)[C@H](Cc2ccc(Cl)c(Cl)c2)NC(=O)[C@H](N)c2ccccc2)cn1` [Example 57, (S)-2-((R)-2-Amino-2-phenyl-acetylamino)-N-(6-amino-pyridin-3-ylmethyl)-3-(3,4-dichloro-phenyl)-propionamide], the 50% inhibitory concentration (IC50) amounted to 4.6 nM.
`Cc1cc(C)c(C(=O)N[C@@H](Cc2ccccc2Cl)C(=O)NCc2ccc(N)nc2)[nH]1` [Example 239, 3,5-Dimethyl-1H-pyrrole-2-carboxylic acid [(S)-1-[(6-amino-pyridin-3-ylmethyl)-carbamoyl]-2-(2-chloro-phenyl)-ethyl]-amide] returned an IC50 of 6.5 nM.
Regarding `CN1CCC[C@@H]1C(=O)N[C@@H](Cc1c[nH]c2ccccc12)C(=O)NCc1ccc(N)nc1` [Example 113, (R)-1-Methyl-pyrrolidine-2-carboxylic acid [(S)-1-[(6-amino-pyridin-3-ylmethyl)-carbamoyl]-2-(1H-indol-3-yl)-ethyl]-amide], the half-inhibitory concentration (IC50) was 14.5 nM.
For the compound `Nc1ccc(CNC(=O)[C@H](Cc2ccc(F)cc2)NC(=O)CN2CCCCC2)cn1` [Example 379, (S)—N-(6-Amino-pyridin-3-ylmethyl)-3-(4-fluoro-phenyl)-2-(2-piperidin-1-yl-acetylamino)-propionamide], the IC50 worked out at 128 nM.
The compound `CC(C)[C@@H](C(=O)N[C@@H](Cc1ccc(F)cc1)C(=O)NCc1ccc(N)nc1)N(C)C(C)C` [Example 370, (S)—N-[(S)-1-[(6-Amino-pyridin-3-ylmethyl)-carbamoyl]-2-(4-fluoro-phenyl)-ethyl]-2-(isopropyl-methyl-amino)-3-methyl-butyramide] came in with a 50% inhibitory concentration (IC50) of 11.3 nM.
Next, `Nc1ccc(CNC(=O)[C@H](Cc2ccc(Cl)c(Cl)c2)NC(=O)[C@H](N)CC2CCCCC2)cn1` [Example 68, (R)-2-Amino-N-[(S)-1-[(6-amino-pyridin-3-ylmethyl)-carbamoyl]-2-(3,4-dichloro-phenyl)-ethyl]-3-cyclohexyl-propionamide]: 9.2 nM.
Take `COc1ccc(C[C@H](NC(=O)[C@H]2CCCN2C)C(=O)NCc2ccc(N)nc2)cc1` [Example 100, (R)-1-Methyl-pyrrolidine-2-carboxylic acid [(S)-1-[(6-amino-pyridin-3-ylmethyl)-carbamoyl]-2-(4-methoxy-phenyl)-ethyl]-amide]: it took 85.8 nM to reach half-maximal inhibition (IC50).
Turning to `CCC(C)[C@@H](NC)C(=O)N[C@@H](Cc1cccc2ccccc12)C(=O)NCc1ccc(N)nc1C` (stereo partly drawn) [Example 203, (R)-3-Methyl-2-methylamino-pentanoic acid {(S)-1-[(6-amino-2-methyl-pyridin-3-ylmethyl)-carbamoyl]-2-naphthalen-1-yl-ethyl}-amide], the half-maximal inhibitory concentration (IC50) was 4.5 nM.
Under `Nc1ccc(CNC(=O)[C@H](Cc2cc(F)cc(F)c2)NC(=O)c2cc3ccccc3[nH]2)cn1` [Example 323, 1H-Indole-2-carboxylic acid [(S)-1-[(6-amino-pyridin-3-ylmethyl)-carbamoyl]-2-(3,5-difluoro-phenyl)-ethyl]-amide] stands 48.1 nM.
Next, `CCC(C)[C@@H](N)C(=O)N[C@@H](Cc1cccc(C#N)c1)C(=O)NCc1ccc(N)nc1` (stereo partly drawn) [Example 31, (R)-2-Amino-3-methyl-pentanoic acid [(S)-1-[(6-amino-pyridin-3-ylmethyl)-carbamoyl]-2-(3-cyano-phenyl)-ethyl]-amide]: 18.1 nM; `CN[C@@H](C(=O)N[C@@H](Cc1cccc(Cl)c1)C(=O)NCc1ccc(N)nc1)C(C)C` [Example 341, (R)—N-[(S)-1-[(6-Amino-pyridin-3-ylmethyl)-carbamoyl]-2-(3-chloro-phenyl)-ethyl]-3-methyl-2-methylamino-butyramide]: 2.2 nM.

(Values after patent publication US20100076015A1, “Aminopyridine Derivatives” (VANTIA LIMITED, priority 2008, published 2010).)
